Target: T1, BRD9 (Homo sapiens, UniProt Q9H8M2)
T1 sequence (Q9H8M2 1-597): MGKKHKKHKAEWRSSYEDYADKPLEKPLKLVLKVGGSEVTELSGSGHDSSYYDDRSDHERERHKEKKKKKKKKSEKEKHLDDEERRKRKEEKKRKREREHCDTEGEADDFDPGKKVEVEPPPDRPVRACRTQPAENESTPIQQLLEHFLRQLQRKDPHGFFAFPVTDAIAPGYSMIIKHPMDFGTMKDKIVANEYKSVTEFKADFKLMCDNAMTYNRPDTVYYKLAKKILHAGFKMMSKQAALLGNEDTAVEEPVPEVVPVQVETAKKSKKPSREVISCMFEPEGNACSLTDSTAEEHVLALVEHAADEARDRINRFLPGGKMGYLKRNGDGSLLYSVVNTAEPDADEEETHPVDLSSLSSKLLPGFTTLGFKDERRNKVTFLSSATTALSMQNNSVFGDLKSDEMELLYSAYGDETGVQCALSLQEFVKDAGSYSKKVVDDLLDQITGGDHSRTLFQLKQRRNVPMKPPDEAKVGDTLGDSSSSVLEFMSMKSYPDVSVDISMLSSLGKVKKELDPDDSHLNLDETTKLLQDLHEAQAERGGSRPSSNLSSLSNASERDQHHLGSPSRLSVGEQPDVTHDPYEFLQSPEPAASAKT
Test: BRD9 degradation, HiBiT-BRD9 KI HEK293 (LgBiT) cells, NanoGlo Lytic Endpoint assay (Assay Protocol 1)
Format: cell-based
Conditions: BRD9 degradation; for Dmax at 1 µM / DC50: Table 2, Assay Protocol 1; for Dmax at 1 µM: 1 μM compound at 6 h of treatment, read-out: Assay 1 Dmax; for DC50: 6 h of treatment, read-out: Assay 1 DC50
Protocol: HiBiT-BRD9 KI HEK293 (LgBiT) Cells (Promega CS3023412) were seeded at 8000 cells per well (38 μL) in sterile white bottom 384 well plates (Invitrogen 164610 or Greiner 781080) and incubated overnight at 37° C. with 5% CO2. The next day, compounds were prepared at 1000× final concentration in DMSO and diluted 1:100 in media (DMEM PAN Biotech P04-03550+10% FBS ATCC 302025). 4 μL compound was added to each well of the cell plate and incubated for 6 h at 37° C. with 5% CO2 BRD9 expression was quantified using the NanoGlo Lytic Endpoint assay (Promega N3050). The lytic buffer was equilibrated to room temperature for 10-15 min before lytic reagent was prepared by adding substrate (1:50) and LgBit protein (1:100) in lytic buffer. 40 μL lytic reagent mix was added to each well of the cel plate and plates were centrifuged briefly at ˜50g. Plates were incubated with shaking (350 RPM) for 12-24 min before reading using the LUM plus module of a BMG Pherastar FSX. Data was analysed using Dotmatics software and % BRD9 remaining was calculated by normalisation to average data from high and low control wells (DMSO treated cels and no cells respectively).

Compound	Dmax at 1 µM (HEK293)	DC50	Dmax (HEK293, Table 4, determined according to Assay Protocol 1, read-out: Dmax^1)
COc1cc(-c2cn(C)c(=O)c(C)c2C)cc(OC)c1CN1CC2CC(C1)N2C(=O)/C(C#N)=C/c1nccs1 (mixture of isomers) [BRD9l, (E/Z)-2-(3-(2,6-dimethoxy-4-(1,4,5-trimethyl-6-oxo-1,6-dihydropyridin-3-yl)benzyl)-3,6-diazabicyclo[3.1.1]heptane-6-carbonyl)-3-(thiazol-2-yl)acrylonitrile]			50 to 70%
COc1cc(-c2cn(C)c(=O)c3cnccc23)cc(OC)c1CN1CCN(C(=O)c2ccc(C3CCCN3C(=O)/C(C#N)=C/c3nccs3)cc2)CC1 (mixture of isomers) [Compound A34, (E/Z)-2-(2-(4-(4-(2,6-dimethoxy-4-(2-methyl-1-oxo-1,2-dihydro-2,7-naphthyridin-4-yl)benzyl)piperazine-1-carbonyl)phenyl)pyrrolidine-1-carbonyl)-3-(thiazol-2-yl)acrylonitrile]	40 to 70%	1.25 to 10 nM	
COc1cc(-c2cn(C)c(=O)c(C)c2C)cc(OC)c1CN1CCN(Cc2cccc3c2CCN(C(=O)/C(C#N)=C\c2nc(C)cs2)C3C)CC1 (mixture of isomers) [Compound A21]	70 to 75%	< 1.25 nM	
COc1cc(-c2cn(C)c(=O)c3cnccc23)cc(OC)c1CN1CCN(Cc2cccc3c2CCN(C(=O)/C(C#N)=C\c2ccc(F)cn2)C3C)CC1 (mixture of isomers) [Compound A12, (E/Z)-2-(5-((4-(2,6-dimethoxy-4-(2-methyl-1-oxo-1,2-dihydro-2,7-naphthyridin-4-yl)benzyl)piperazin-1-yl)methyl)-1-methyl-1,2,3,4-tetrahydroisoquinoline-2-carbonyl)-3-(5-fluoropyridin-2-yl)acrylonitrile]	40 to 70%	10 to 25 nM	
COc1cc(-c2cn(C)c(=O)c3cnccc23)cc(OC)c1CN1CCN(Cc2cccc3c2CCN(C(=O)/C(C#N)=C/c2cccc(Br)n2)C3C)CC1 (mixture of isomers) [Compound A5, (E/Z)-3-(6-bromopyridin-2-yl)-2-(5-((4-(2,6-dimethoxy-4-(2-methyl-1-oxo-1,2-dihydro-2,7-naphthyridin-4-yl)benzyl)piperazin-1-yl)methyl)-1-methyl-1,2,3,4-tetrahydroisoquinoline-2-carbonyl)acrylonitrile]	40 to 70%	< 1.25 nM	
COc1cc(-c2cn(C)c(=O)c3cnccc23)cc(OC)c1CN1CCN(Cc2cccc3c2CCN(C(=O)/C(C#N)=C\C2CCOCC2)C3C)CC1 (mixture of isomers) [Compound A17, (E/Z)-2-(5-((4-(2,6-dimethoxy-4-(2-methyl-1-oxo-1,2-dihydro-2,7-naphthyridin-4-yl)benzyl)piperazin-1-yl)methyl)-1-methyl-1,2,3,4-tetrahydroisoquinoline-2-carbonyl)-3-(tetrahydro-2H-pyran-4-yl)acrylonitrile]	40 to 70%	1.25 to 10 nM	
COc1cc(-c2cn(C)c(=O)c(C)c2C)cc(OC)c1CN1CCN(Cc2cccc3c2CCN(C(=O)/C(C#N)=C/c2nc4ccccc4s2)C3C)CC1 (mixture of isomers) [Compound A20]	> 75%	1.25 to 10 nM	

Further lines, with some results ahead:

Dmax at 1 µM (HEK293)	DC50	Compound	Dmax (HEK293, Table 4, determined according to Assay Protocol 1, read-out: Dmax^1)
40 to 70%	1.25 to 10 nM	COc1cc(-c2cn(C)c(=O)c3cnccc23)cc(OC)c1CN1CCN(Cc2ccc(C3CCCN3C(=O)/C(C#N)=C/c3nccs3)cc2)CC1 (mixture of isomers) [Compound A38, (E/Z)-2-(2-(4-((4-(2,6-dimethoxy-4-(2-methyl-1-oxo-1,2-dihydro-2,7-naphthyridin-4-yl)benzyl)piperazin-1-yl)methyl)phenyl)pyrrolidine-1-carbonyl)-3-(thiazol-2-yl)acrylonitrile]	
> 75%	1.25 to 10 nM	COc1cc(-c2cc(C)c(=O)n(C)c2)cc(OC)c1CN1CCN(Cc2cccc3c2CCN(C(=O)/C(C#N)=C/C(C)C)C3C)CC1 (mixture of isomers) [Compound A52, (E/Z)-2-(5-((4-(4-(1,5-dimethyl-6-oxo-1,6-dihydropyridin-3-yl)-2,6-dimethoxybenzyl)piperazin-1-yl)methyl)-1-methyl-1,2,3,4-tetrahydroisoquinoline-2-carbonyl)-4-methylpent-2-enenitrile]	
> 75%	1.25 to 10 nM	COc1cc(-c2cn(C)c(=O)c(C)c2C)cc(OC)c1CN1CC2CC1CN2Cc1cccc2c1CCN(C(=O)/C(C#N)=C/c1cccc(Br)n1)C2C (mixture of isomers) [Compound A64, (E/Z)-3-(6-bromopyridin-2-yl)-2-(5-((5-(2,6-dimethoxy-4-(1,4,5-trimethyl-6-oxo-1,6-dihydropyridin-3-yl)benzyl)-2,5-diazabicyclo[2.2.1]heptan-2-yl)methyl)-1-methyl-1,2,3,4-tetrahydroisoquinoline-2-carbonyl)acrylonitrile]	
40 to 70%	1.25 to 10 nM	COc1cc(-c2cn(C)c(=O)c3cnccc23)cc(OC)c1CN(C)Cc1ccc2c(c1)CCN(C(=O)/C(C#N)=C/C(C)(C)C)C2C (mixture of isomers) [Compound A46]	
40 to 70%	1.25 to 10 nM	COc1cc(-c2cn(C)c(=O)c(C)c2C)cc(OC)c1CN1CCN(Cc2cccc3c2CCN(C(=O)/C(C#N)=C/c2ccc(C(F)(F)F)cn2)C3C)CC1 (mixture of isomers) [Compound A54, (E/Z)-2-(5-((4-(2,6-dimethoxy-4-(1,4,5-trimethyl-6-oxo-1,6-dihydropyridin-3-yl)benzyl)piperazin-1-yl)methyl)-1-methyl-1,2,3,4-tetrahydroisoquinoline-2-carbonyl)-3-(5-(trifluoromethyl)pyridin-2-yl)acrylonitrile]	
40 to 70%	1.25 to 10 nM	COc1cc(-c2cn(C)c(=O)c3cnccc23)cc(OC)c1CN1CCN(Cc2cccc3c2CCN(C(=O)/C(C#N)=C/c2c(F)cccc2F)C3C)CC1 (mixture of isomers) [Compound A35, (E/Z)-3-(2,6-difluorophenyl)-2-[5-[[4-[[2,6-dimethoxy-4-(2-methyl-1-oxo-2,7-naphthyridin-4-yl)phenyl]methyl]piperazin-1-yl]methyl]-1-methyl-3,4-dihydro-1H-isoquinoline-2-carbonyl]prop-2-enenitrile]	
> 75%	1.25 to 10 nM	COc1cc(-c2cn(C)c(=O)c(C)c2C)cc(OC)c1CN1CCN(Cc2cccc(C3CCCN3C(=O)/C(C#N)=C/c3cccc(Br)n3)c2)CC1 (mixture of isomers) [Compound A63, (E/Z)-3-(6-bromopyridin-2-yl)-2-(2-(3-((4-(2,6-dimethoxy-4-(1,4,5-trimethyl-6-oxo-1,6-dihydropyridin-3-yl)benzyl)piperazin-1-yl)methyl)phenyl)pyrrolidine-1-carbonyl) acrylonitrile]	
70 to 75%	1.25 to 10 nM	COc1cc(-c2cn(C)c(=O)c3cnccc23)cc(OC)c1CN(C)Cc1ccc2c(c1)C(C)N(C(=O)/C(C#N)=C/c1cccc(Br)n1)CC2 (mixture of isomers) [Compound A59]	
> 75%	1.25 to 10 nM	COc1cc(-c2cn(C)c(=O)c(C)c2C)cc(OC)c1CN1CCN(C(=O)CCc2cccc3c2CCN(C(=O)/C(C#N)=C/c2nccs2)C3C)CC1 (mixture of isomers) [Compound A57, (E/Z)-2-(5-(3-(4-(2,6-dimethoxy-4-(1,4,5-trimethyl-6-oxo-1,6-dihydropyridin-4-yl)benzyl)piperazin-1-yl)-3-oxopropyl)-1-methyl-1,2,3,4-tetrahydroisoquinoline-2-carbonyl)-3-(thiazol-2-yl)acrylonitrile]	
